Common to all, as to format: biochemical
In one experiment the target is T1, JAK3 (Homo sapiens, UniProt P52333).
T1 sequence (P52333 1-1124): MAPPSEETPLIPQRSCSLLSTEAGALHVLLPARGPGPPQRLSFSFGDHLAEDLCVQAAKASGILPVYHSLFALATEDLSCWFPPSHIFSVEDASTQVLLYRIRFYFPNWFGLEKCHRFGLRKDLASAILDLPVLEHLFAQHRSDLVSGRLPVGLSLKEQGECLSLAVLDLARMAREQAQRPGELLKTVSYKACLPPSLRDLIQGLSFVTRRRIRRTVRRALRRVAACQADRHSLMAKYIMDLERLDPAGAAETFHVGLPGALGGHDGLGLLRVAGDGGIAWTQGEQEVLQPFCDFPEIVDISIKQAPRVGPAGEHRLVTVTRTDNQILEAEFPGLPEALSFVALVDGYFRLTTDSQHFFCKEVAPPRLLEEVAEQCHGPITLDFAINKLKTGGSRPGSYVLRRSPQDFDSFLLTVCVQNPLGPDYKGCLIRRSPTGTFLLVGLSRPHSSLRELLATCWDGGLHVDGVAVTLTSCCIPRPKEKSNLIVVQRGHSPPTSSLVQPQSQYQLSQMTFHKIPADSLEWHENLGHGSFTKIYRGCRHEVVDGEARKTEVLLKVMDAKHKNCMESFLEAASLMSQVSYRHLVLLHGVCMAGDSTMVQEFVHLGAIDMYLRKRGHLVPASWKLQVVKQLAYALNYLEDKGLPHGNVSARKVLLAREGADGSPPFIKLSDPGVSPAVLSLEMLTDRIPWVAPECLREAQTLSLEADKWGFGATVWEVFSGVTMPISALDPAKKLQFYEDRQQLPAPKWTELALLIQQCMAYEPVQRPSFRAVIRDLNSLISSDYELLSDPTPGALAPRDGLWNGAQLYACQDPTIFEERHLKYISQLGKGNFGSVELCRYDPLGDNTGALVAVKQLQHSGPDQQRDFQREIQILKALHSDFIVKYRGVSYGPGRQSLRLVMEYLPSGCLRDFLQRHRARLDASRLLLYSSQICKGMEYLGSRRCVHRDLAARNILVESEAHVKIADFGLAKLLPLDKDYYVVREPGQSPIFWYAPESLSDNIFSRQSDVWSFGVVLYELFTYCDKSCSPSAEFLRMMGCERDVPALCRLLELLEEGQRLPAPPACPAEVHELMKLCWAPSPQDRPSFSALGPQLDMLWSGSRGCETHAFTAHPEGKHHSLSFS
Description: Inhibition of a panel of kinases, in vitro HotSpot kinase assay: JAK3. To be noted: read-out: IC50 JAK3.

The next experiment concerns the target LCK (Homo sapiens, UniProt P06239). Description: Inhibition of a panel of kinases, in vitro HotSpot kinase assay: LCK. To be noted: read-out: IC50 LCK.
For the next experiment, the target named is T2, ITK (Homo sapiens, UniProt Q08881).
T2 sequence (Q08881 1-620): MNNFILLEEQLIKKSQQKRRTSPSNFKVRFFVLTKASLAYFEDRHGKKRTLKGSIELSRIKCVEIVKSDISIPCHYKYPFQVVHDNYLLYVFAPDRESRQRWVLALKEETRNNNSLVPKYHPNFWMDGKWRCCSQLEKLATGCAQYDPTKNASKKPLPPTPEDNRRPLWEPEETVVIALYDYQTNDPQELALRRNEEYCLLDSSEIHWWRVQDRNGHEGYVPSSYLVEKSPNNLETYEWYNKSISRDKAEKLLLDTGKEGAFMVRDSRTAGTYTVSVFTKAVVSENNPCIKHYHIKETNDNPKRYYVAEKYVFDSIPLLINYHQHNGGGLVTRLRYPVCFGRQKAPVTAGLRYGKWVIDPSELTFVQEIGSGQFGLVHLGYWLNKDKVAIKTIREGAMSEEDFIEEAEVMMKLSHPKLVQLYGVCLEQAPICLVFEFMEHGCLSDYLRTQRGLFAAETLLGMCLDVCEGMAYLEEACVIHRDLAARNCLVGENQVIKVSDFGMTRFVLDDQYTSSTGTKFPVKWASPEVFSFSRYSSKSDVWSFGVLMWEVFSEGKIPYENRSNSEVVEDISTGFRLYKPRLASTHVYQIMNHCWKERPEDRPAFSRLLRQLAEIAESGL
Description: Inhibition of a panel of kinases, in vitro HotSpot kinase assay: ITK. On the procedure: (§1) The degree of inhibition of a panel of kinases is determined using the in vitro HotSpot kinase assay (purified enzymes, ^33P-ATP, an appropriate substrate and 1 μM ATP).

The target in a further experiment is EGFR (Homo sapiens, UniProt P00533). Description: Inhibition of a panel of kinases, in vitro HotSpot kinase assay: EGFR. On the procedure: as §1
Chain of EGFR (P00533 25-1210): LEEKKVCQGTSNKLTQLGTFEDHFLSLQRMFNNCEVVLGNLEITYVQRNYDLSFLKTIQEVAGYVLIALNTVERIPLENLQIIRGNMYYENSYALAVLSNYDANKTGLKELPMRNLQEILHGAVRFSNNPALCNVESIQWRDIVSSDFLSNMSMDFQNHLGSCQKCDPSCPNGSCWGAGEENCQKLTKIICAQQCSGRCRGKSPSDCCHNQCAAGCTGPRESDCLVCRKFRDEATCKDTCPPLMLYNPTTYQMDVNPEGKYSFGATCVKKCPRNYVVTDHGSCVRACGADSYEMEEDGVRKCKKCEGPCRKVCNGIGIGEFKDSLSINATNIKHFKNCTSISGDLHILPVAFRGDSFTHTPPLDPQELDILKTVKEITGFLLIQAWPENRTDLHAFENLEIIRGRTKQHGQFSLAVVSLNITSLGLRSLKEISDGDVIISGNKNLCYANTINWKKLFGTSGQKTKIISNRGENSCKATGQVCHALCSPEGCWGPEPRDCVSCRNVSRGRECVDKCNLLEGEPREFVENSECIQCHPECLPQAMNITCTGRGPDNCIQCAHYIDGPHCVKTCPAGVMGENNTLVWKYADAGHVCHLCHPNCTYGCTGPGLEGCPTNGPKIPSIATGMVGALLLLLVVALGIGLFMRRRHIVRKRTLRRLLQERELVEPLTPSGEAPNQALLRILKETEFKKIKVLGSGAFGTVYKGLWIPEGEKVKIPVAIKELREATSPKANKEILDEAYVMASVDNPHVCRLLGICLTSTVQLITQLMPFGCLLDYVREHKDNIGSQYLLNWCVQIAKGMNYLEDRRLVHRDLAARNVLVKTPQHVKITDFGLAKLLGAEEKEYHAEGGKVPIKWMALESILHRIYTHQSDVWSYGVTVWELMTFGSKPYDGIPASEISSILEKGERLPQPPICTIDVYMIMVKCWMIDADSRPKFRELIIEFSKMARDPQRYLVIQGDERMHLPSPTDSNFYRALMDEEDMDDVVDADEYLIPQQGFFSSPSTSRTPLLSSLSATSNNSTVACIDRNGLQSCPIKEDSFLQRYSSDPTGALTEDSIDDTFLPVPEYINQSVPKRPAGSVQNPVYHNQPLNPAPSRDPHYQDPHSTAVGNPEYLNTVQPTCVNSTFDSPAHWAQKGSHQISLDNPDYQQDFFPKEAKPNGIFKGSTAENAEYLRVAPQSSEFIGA
The target in a further experiment is SRC (Homo sapiens, UniProt P12931). Description: Inhibition of a panel of kinases, in vitro HotSpot kinase assay: SRC. On the procedure: as §1
Chain of SRC (P12931 whole entry): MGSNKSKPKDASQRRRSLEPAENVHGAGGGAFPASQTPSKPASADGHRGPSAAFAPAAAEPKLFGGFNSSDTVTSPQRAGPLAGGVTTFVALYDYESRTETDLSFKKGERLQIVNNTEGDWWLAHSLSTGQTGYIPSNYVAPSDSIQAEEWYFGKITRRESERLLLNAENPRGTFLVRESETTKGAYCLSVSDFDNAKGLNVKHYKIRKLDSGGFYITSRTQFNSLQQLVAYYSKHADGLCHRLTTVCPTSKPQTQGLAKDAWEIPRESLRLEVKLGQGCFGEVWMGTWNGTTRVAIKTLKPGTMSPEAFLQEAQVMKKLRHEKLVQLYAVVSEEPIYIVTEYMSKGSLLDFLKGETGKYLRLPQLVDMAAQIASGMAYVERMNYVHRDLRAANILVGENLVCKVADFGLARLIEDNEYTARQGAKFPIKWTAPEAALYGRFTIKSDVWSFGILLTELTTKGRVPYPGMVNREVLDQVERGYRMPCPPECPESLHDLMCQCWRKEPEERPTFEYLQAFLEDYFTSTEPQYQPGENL
The mark [1] stands for this setting: Table 13, A compounds, 1 μM ATP.

The results in this text go back to patent US20210070748A1, “INHIBITORS OF BRUTONS TYROSINE KINASE” (Pharmacyclics LLC, priority 2015, published 2021).

The structures appear in SMILES notation. Like-named read-outs stand apart in the source and are kept apart here. A value given as a limit tells only on which side of the number the result lay.

Chain of LCK (P06239 whole entry): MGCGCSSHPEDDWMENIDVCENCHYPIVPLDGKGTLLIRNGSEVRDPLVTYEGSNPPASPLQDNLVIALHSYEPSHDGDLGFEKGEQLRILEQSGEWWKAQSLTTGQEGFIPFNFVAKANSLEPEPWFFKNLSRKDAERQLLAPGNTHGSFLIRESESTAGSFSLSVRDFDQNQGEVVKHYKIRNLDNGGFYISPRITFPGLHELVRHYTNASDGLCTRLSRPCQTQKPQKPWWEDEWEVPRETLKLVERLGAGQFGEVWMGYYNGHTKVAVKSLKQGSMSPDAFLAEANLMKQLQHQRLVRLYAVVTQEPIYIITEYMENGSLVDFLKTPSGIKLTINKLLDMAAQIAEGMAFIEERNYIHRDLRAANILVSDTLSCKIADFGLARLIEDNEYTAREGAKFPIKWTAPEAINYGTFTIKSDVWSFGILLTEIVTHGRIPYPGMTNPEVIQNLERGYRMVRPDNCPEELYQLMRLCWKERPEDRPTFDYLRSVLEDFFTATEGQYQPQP

`C[C@@H]1[C@H](NC(=O)c2ccc(C3CC3)c(Cl)c2)CCCN1c1cnc(C(N)=O)c(Nc2ccc(N3CCN(C)CC3)cc2)n1` [Example A-189, 5-((2R,3R)-3-(3-chloro-4-cyclopropylbenzamido)-2-methylpiperidin-1-yl)-3-(4-(4-methylpiperazin-1-yl)phenylamino)pyrazine-2-carboxamide]: the IC50 (as a rule, the point on the concentration scale where inhibition reaches its midpoint) at JAK3 (setting [1]) lay in the range of 1000 to 10000 nM; on LCK (setting [1]), 100 to 1000 nM; on ITK (setting [1]), 100 to 1000 nM; against EGFR (setting [1]), 1000 to 10000 nM; at SRC (setting [1]) it was 100 to 1000 nM.

As for `C[C@@H]1[C@H](NC(=O)c2ccc(C3CC3)cc2)CCCN1c1cnc(C(N)=O)c(Nc2cnn(C)c2)n1` [Example A-169, 5-[(2R,3R)-3-(4-cyclopropylbenzamido)-2-methylpiperidin-1-yl]-3-[(1-methyl-1H-pyrazol-4-yl)amino]pyrazine-2-carboxamide], the IC50 on JAK3 (setting [1]) lay in the range of 1000 to 10000 nM; on LCK (setting [1]), 100 to 1000 nM; against ITK (setting [1]), 1000 to 10000 nM; against EGFR (setting [1]), 1000 to 10000 nM; on SRC (setting [1]), 100 to 1000 nM.

In the case of `C[C@@H]1[C@H](NC(=O)c2ccc(C(C)(C)C)cc2)CCCN1c1cnc(C(N)=O)c(Nc2ccc(N3CCN(C)CC3)cc2)n1` [Example A-184, 5-[(2R,3R)-3-(4-tert-butylbenzamido)-2-methylpiperidin-1-yl]-3-{[4-(4-methylpiperazin-1-yl)phenyl]amino}pyrazine-2-carboxamide], the IC50 is above 10000 nM at JAK3 (setting [1]); above 10000 nM at LCK (setting [1]); 100 to 1000 nM against ITK (setting [1]); 1000 to 10000 nM on EGFR (setting [1]); 1000 to 10000 nM on SRC (setting [1]).

Take `C[C@@H]1[C@H](NC(=O)c2ccc(C(C)(C)O)cc2)CCCN1c1cnc(C(N)=O)c(Nc2ccc(C3(C)CCN(C4CC4)CC3)cc2)n1` [Example E-147, 3-((4-(1-cyclopropyl-4-methylpiperidin-4-yl)phenyl)amino)-5-((2R,3R)-3-(4-(2-hydroxypropan-2-yl)benzamido)-2-methylpiperidin-1-yl)pyrazine-2-carboxamide]: the IC50 on JAK3 (E compounds, Table 17) was 100 to 1000 nM; on LCK (E compounds, Table 17) it was below 10 nM; against ITK (E compounds, Table 17), 10 to 100 nM; at EGFR (E compounds, Table 17), 100 to 1000 nM; on SRC (E compounds, Table 17) it was at most 10 nM.

`Cn1cc(Nc2nc(N3C[C@@H](NC(=O)c4ccc(C5CC5)cc4)CC(F)(F)C3)cnc2C(N)=O)cn1` [Example A-187, (S)-5-(5-(4-cyclopropylbenzamido)-3,3-difluoropiperidin-1-yl)-3-(1-methyl-1H-pyrazol-4-ylamino)pyrazine-2-carboxamide]: the IC50 is 1000 to 10000 nM at JAK3 (setting [1]); above 10000 nM at LCK (setting [1]); above 10000 nM at ITK (setting [1]); 1000 to 10000 nM at EGFR (setting [1]); above 10000 nM against SRC (setting [1]).

For the compound `C=CC(=O)N1CCC[C@@H](Nc2nnc(C(N)=O)c(Nc3ccc(-c4ncccn4)cc3)n2)C1` [Example E-41, (R)-3-(1-acryloylpiperidin-3-ylamino)-5-(4-(pyrimidin-2-yl)phenylamino)-1,2,4-triazine-6-carboxamide], the IC50 at JAK3 (E compounds, Table 17) was below 10 nM; on LCK (E compounds, Table 17) it was 100 to 1000 nM; on ITK (E compounds, Table 17), 10 to 100 nM; at EGFR (E compounds, Table 17) it was 10 to 100 nM; against SRC (E compounds, Table 17), 100 to 1000 nM.

In the case of `CN(C)C(=O)N[C@@H]1CCCN(c2cnc(C(N)=O)c(Nc3ccc(C4(C)CCN(C5CCCC5)CC4)cc3)n2)[C@@H]1CO` [Example A-101, 3-{[4-(1-cyclopentyl-4-methylpiperidin-4-yl)phenyl]amino}-5-[(2S,3R)-3-[(dimethylcarbamoyl)amino]-2-(hydroxymethyl)piperidin-1-yl]pyrazine-2-carboxamide], the IC50 at JAK3 (setting [1]) lay within 1000 to 10000 nM; on LCK (setting [1]), 100 to 1000 nM; at ITK (setting [1]) it was 1000 to 10000 nM; against EGFR (setting [1]) it was 100 to 1000 nM; against SRC (setting [1]), 100 to 1000 nM.

In the case of `C[C@@H]1[C@H](NC(=O)c2ccc(C(C)(C)N3CCCC3)cc2)CCCN1c1cnc(C(N)=O)c(Nc2cnn(C)c2)n1` [Example E-143, 3-((1-methyl-1H-pyrazol-4-yl)amino)-5-((2R,3R)-2-methyl-3-(4-(2-(pyrrolidin-1-yl)propan-2-yl)benzamido)piperidin-1-yl)pyrazine-2-carboxamide], the IC50 on JAK3 (E compounds, Table 17) was 100 to 1000 nM; on LCK (E compounds, Table 17), 10 to 100 nM; against ITK (E compounds, Table 17), 100 to 1000 nM; against EGFR (E compounds, Table 17), above 10000 nM; against SRC (E compounds, Table 17), 10 to 100 nM.

With `C[C@@H]1[C@H](NC(=O)c2ccc(C3CC3)cc2F)CCCN1c1cnc(C(N)=O)c(Nc2cnn(C)c2)c1` [Example A-127, 5-[(2R,3R)-3-(4-cyclopropyl-2-fluorobenzamido)-2-methylpiperidin-1-yl]-3-[(1-methyl-1H-pyrazol-4-yl)amino]pyridine-2-carboxamide], the IC50 fell in the range of 1000 to 10000 nM at JAK3 (setting [1]); 100 to 1000 nM at LCK (setting [1]); 1000 to 10000 nM against ITK (setting [1]); 1000 to 10000 nM against EGFR (setting [1]); 100 to 1000 nM against SRC (setting [1]).

For `Cc1cc(Nc2nc(N3CCC[C@@H](NC(=O)N4Cc5ccccc5C4=O)C3)cnc2C(N)=O)sn1` [Example A-183, N-[(3R)-1-{5-carbamoyl-6-[(3-methyl-1,2-thiazol-5-yl)amino]pyrazin-2-yl}piperidin-3-yl]-1-oxo-2,3-dihydro-1H-isoindole-2-carboxamide], the IC50 was 1000 to 10000 nM at JAK3 (setting [1]); 10 to 100 nM on LCK (setting [1]); 10 to 100 nM at ITK (setting [1]); 100 to 1000 nM on EGFR (setting [1]); 10 to 100 nM on SRC (setting [1]).

For the compound `C[C@@H]1CCN(c2cnc(C(N)=O)c(Nc3cnn(C)c3)n2)C[C@@H]1NC(=O)c1ccc(C2CC2)cc1` [Example E-140, 5-((3R,4R)-3-(4-cyclopropylbenzamido)-4-methylpiperidin-1-yl)-3-((1-methyl-1H-pyrazol-4-yl)amino)pyrazine-2-carboxamide], the IC50 is above 10000 nM at JAK3 (E compounds, Table 17); 1000 to 10000 nM at LCK (E compounds, Table 17); above 10000 nM against ITK (E compounds, Table 17); above 10000 nM at EGFR (E compounds, Table 17); above 10000 nM at SRC (E compounds, Table 17).

Take `C[C@@H]1[C@H](NC(=O)c2ccc(C3CC3)cc2)CCCN1c1cnc(C(N)=O)c(Nc2cnc(C3CCOCC3)nc2)n1` [Example E-144, 5-((2R,3R)-3-(4-cyclopropylbenzamido)-2-methylpiperidin-1-yl)-3-((2-(tetrahydro-2H-pyran-4-yl)pyrimidin-5-yl)amino)pyrazine-2-carboxamide]: the IC50 was above 10000 nM on JAK3 (E compounds, Table 17); 100 to 1000 nM on LCK (E compounds, Table 17); 100 to 1000 nM on ITK (E compounds, Table 17); above 10000 nM against EGFR (E compounds, Table 17); 100 to 1000 nM against SRC (E compounds, Table 17).

On to `C[C@@H]1[C@H](NC(=O)c2ccc(C3CC3)cc2)CCCN1c1cnc(C(N)=O)c(Nc2cc(CN3CCCCC3)ns2)n1` [Example A-181, 5-[(2R,3R)-3-(4-cyclopropylbenzamido)-2-methylpiperidin-1-yl]-3-{[3-(piperidin-1-ylmethyl)-1,2-thiazol-5-yl]amino}pyrazine-2-carboxamide], for which the IC50 on JAK3 (setting [1]) fell in the range of 100 to 1000 nM; on LCK (setting [1]), 10 to 100 nM; against ITK (setting [1]), 10 to 100 nM; at EGFR (setting [1]), 1000 to 10000 nM; on SRC (setting [1]), 10 to 100 nM.
